Here are results for one compound from paper PMC7332124, “Design, One Pot Synthesis and Molecular Docking Studies of Substituted-1H-Pyrido[2,1-b] Quinazolines as Apoptosis-Inducing Anticancer Agents” (Asian Pacific Journal of Cancer Prevention : APJCP, 2020).

Common to all, as to format: cell-based, human
The test system of one test is A549. Description: MTT cytotoxicity assay. The protocol:
(§1) Various cancer cells were used to screen anticancer activity of newly synthesized compounds. Lung (A549 and NCI-H460), colon (HCT-15 and HT-29), prostate (DU-145) cancer cells maintained in RPMI-1640 media while normal lung fibroblasts cell line (HFL-1) were maintained in F-12 k medium supplemented with 10% fetal bovine serum (FBS) with 1% antibiotic-antimycotic solution (Sigma). Cells were maintained in 5% CO2 with 98% relative humidity at 37 °C in incubator. When 80-90% of confluency is reached, they were sub-cultured using 0.25% trypsin/1 mM EDTA solution for further passage. The compounds in this series were dissolved in DMSO (1 %) to prepare the stock solution of 10 mM. Further dilutions were made accordingly with respective media to obtain the required concentrations.
(§2) MTT assay measures the reduction of MTT (3-(4,5-dimethylthiazol- 2-yl)-2,5-diphenyl tetrazolium bromide) by mitochondrial succinate dehydrogenase enzyme to insoluble formazan crystals. Since reduction of MTT occurs only in metabolically active cells, the level of activity is the measure of the viability of the cells.(Pordeli et al., 2017). Briefly, cells were plated in 96-well plates at a density of 3,000 to 6,000 cells per well in 100 µl of complete medium and allowed to grow overnight. Then the cells were treated with different concentrations of the synthesized compounds and incubated for 72 h. After the treatment, 100 µl of MTT (0.5 mg/ml) was added and incubated at 37 °C for 4 h. Then MTT reagent was aspirated and formazan crystals formed were dissolved by the addition of 200 µL of DMSO for 20 min at 37 °C. The formazan product quantity was measured by using a spectrophotometric microtiter plate reader (Spectra Max, M4 Molecular devices, USA) at 570 nm wavelength(Nekkanti et al., 2017).

For a further test, the system named is DU-145. Description: MTT cytotoxicity assay. To be noted: Homo sapiens, DU-145 prostate cancer, 72 h, read-out: In vitro Inhibitory Concentration (IC50). The procedure: as §1, §2
For a further test, the system named is HCT-15. Description: MTT cytotoxicity assay. The following applies: Homo sapiens, HCT-15 colon cancer, 72 h, read-out: In vitro Inhibitory Concentration (IC50). The protocol:
as §1, §2

In test [1] the test system is HFL-1 normal lung fibroblasts. Nature of the test: MTT cytotoxicity assay. To be noted: Homo sapiens, HFL1, 72 h, read-out: In vitro Inhibitory Concentration (IC50). The protocol: as §1, §2
The next test relates to HT-29. Nature of the test: MTT cytotoxicity assay. To be noted: Homo sapiens, HT-29 colorectal cancer, 72 h, read-out: In vitro Inhibitory Concentration (IC50). The procedure: as §1, §2
The test system of a further test is NCI-H460. Nature of the test: MTT cytotoxicity assay. The following applies: Homo sapiens, NCI-H460 lung carcinoma, 72 h, read-out: In vitro Inhibitory Concentration (IC50). The protocol:
as §1, §2

Test [2] deals with A549 cells. Nature of the test: Morphological observation, phase contrast microscope. The following applies: 0.5, 1, 2.5 and 5 µM, 72 h. The procedure:
A549 cells were plated in 12 well culture plates with a cell density of 1.2x10^5 cells/ml and allowed to adhere for 24 h. Then the cells were incubated with 0.5, 1, 2.5 and 5 µM concentrations of compound 4q. After 72 h treatment, cells were monitored for the morphological changes and the images were captured under a phase contrast microscope (Nikon, Inc. Japan) at 200X magnification.

Test [3] has as its system A549 cells. Nature of the test: Cell cycle analysis (propidium iodide, flow cytometry). The protocol:
In order to reveal whether arrest of cell cycle was mechanistically responsible for sensitizing lung cancer cells towards apoptosis, the flow cytometric analysis was performed to analyse the distribution of the cell population in various cell cycle phases (Mani et al., 2017). Here, A549 cancer cells were incubated with compound 4q at various concentrations ranging from 0.5 to 5 µM for 48 h. Untreated and treated cells were harvested, washed and fixed overnight in 70% ethanol in PBS at -20 °C. Fixed cells were pelleted and stained with cell cycle analysis reagent propidium iodide (50 μg/ml) with RNase A for 20 min at 37 °C in dark and about 10,000 events were acquired and analyzed on a flow cytometer (Kumar et al., 2018a).

“Also recorded” adds a separate entry of the source.

Take `C1=CC2=NC3=C(CCCC3)C(c3cn(Cc4ccccc4)c4ccccc34)N2C=C1` (stereo not shown) [Compound 4i, 11-(1-benzyl-1H-indol-3-yl)-2,3,4, 11-tetrahydro-1H-pyrido [2,1-b] quinazoline]: the IC50 was found to be 4.57 ± 0.25 µM in the test with A549 (Homo sapiens, A549 adenocarcinoma (lung), MTT, 72 h, read-out: In vitro Inhibitory Concentration (IC50)); 9.15 ± 0.09 µM in the test with DU-145; 11.3 ± 0.25 µM with HCT-15; 8.7 ± 0.36 µM in test [1]; 11.57 ± 0.04 µM with HT-29; 5.53 ± 0.49 µM in the test on NCI-H460. Further, in the test with A549 (IC50 in HFL-1 normal fibroblasts versus lung cancer cells), the “selectivity towards the cancer cells” value is “approximately 2 fold”. Moreover, the “morphological changes (phase contrast)” value in the test with A549 cells [2] was “shrinkage of cells and resulted in increased number of dead cells with increase in concentration”. The “percentage of cells in G0/G1” value in the test on A549 cells [3] (5 µM, control 63.53%) was 80.02%. Moreover, in the test on A549 cells [3] (0.5 to 5 µM), the “cell cycle phase arrest” value is reported as “arrests the A549 cancer cell lines at the G0/G1 phase; also recorded: G0/G1 arrest of the cell cycle”.
